The test system of data set [1] is IL-6 release from Thp1 macrophages. In words: Thp1 Macrophage IL-6 Release Assay (LPS-stimulated). Type of data set: cell-based. The conditions noted are these: Homo sapiens, THP-1, 18 h, 100 ng/mL LPS. An excerpt: Anti-inflammatory effects were further characterised by assessing the production of interleukin-6 (IL-6) by human Thp-1 derived macrophages stimulated with a pro-inflammatory stimulus bacterial lipopolysaccharide (LPS). LPS acts with a cell-surface receptor, Toll-like receptor-4 to activate the NFκB and IRF signalling pathways to produce IL-6. The reduction of IL-6 in this stimulated assay is indicative of anti-inflammatory effects with utility in the treatment of conditions in which IL-6 production is aberrant. In vitro potency of test compounds in human cells was determined by incubation with Thp1 macrophages and subsequent stimulation with an inflammatory stimulus (bacterial lipopolysaccharide (LPS)) followed by measurement of cellular interleukin-6 (IL-6) release. […] The following day, the cells were stimulated with phorbol myristic acid (PMA) at a final concentration of 200 nM to induce differentiation and maintained for 3 days. Test compounds were prepared as […] solutions in DMSO and then serially diluted in DMSO prior to dilution in culture medium. The diluted compounds were added to the cultures 1 hour prior to stimulation with 100 ng/mL LPS. Compounds were tested in triplicate in a 9 point concentration response curve at concentrations of 30, 10, 3, 1, 0.3, 0.1, 0.03, 0.01 and 0.001 μM Following an 18 hour incubation at 37° C./5% CO2, the cell culture medium was collected and assayed for human IL-6 levels using the human IL-6 duo-set ELISA kit (R&D Systems). The average results for each test compound (n=3) were expressed as a percent (%) of the average control value. The average values across the concentrations tested were then plotted and the IC50 for the inhibition of IL-6 was calculated by fitting the data to a 4-parameter IC50 equation using GraphPad Prism software for Windows (Graph Pad Software, San Diego Calif. USA) or Grafit version 5 (Erithacus Software). Each experiment was repeated twice and the data are presented as the mean IC50 from both experiments.

The next data set concerns the target T1, CYP2D6 (Homo sapiens, UniProt P10635).
T1 construct: purchased Cypex Ltd, Dundee, Scotland UK
The experiment in a line: Human Cytochrome P450 Inhibition Assay (Bactosomes), CYP2D6. The conditions noted are these: recombinant Bactosomes, probe substrate, 10 minutes at 37° C. Type of data set: in vitro ADME. How it is done: (§1) The ability of test compounds to inhibit five of the most relevant cytochrome P450 enzymes was measured by determination of the activity of cytochrome P450 enzymes in recombinant cytochrome preparations, called Bactosomes (Cypex Ltd, Dundee, Scotland UK DD2 1NH), in the presence of a specific probe substrate. Bactosomes are a highly efficient and cost-effective source of recombinant CYP450s which have a higher specific activity of enzyme compared to other sources, such as liver microsomes. […] The following CYP450 isoforms were assayed: CYP1A2, CYP2C9, CYP2C19, CYP2D6 and CYP3A4. The study of CYP450 inhibition potential in Bactosomes is accepted as a valuable model permitting rapid prediction of potential drug-drug interactions in vivo (see, e.g., Weaver et al., 2003).
(§2) Bactosomes were obtained from a commercial source (Cypex, Scotland, UK). Test compounds were incubated with Bactosomes at 6 concentrations. Samples were incubated for 10 minutes, after which the reaction was stopped and the samples analysed by LC-MS/MS Multiple Reaction Monitoring (MRM) for the presence/amount of substrate probe.
(§3) CYP450 enzymes (final protein 75 pmol/mL for CYP1A2; 12.5 pmol/mL for CYP2C19; and 25 pmol/mL for CYP2C9, 2D6 and 3A4), 0.1 M phosphate buffer pH 7.4, probe and test compound (final concentration 50, 15.8, 5, 1.58, 0.5 and 0.158 μM; diluted from 10 mM stock solution to give a final DMSO concentration of 1%) were pre-incubated at 37° C. for 5 minutes. The reaction was initiated by the addition of 20 μL of 10 mM NADPH in phosphate buffer. The final incubation volume was 200 μL. The following control inhibitors were used for each CYP450 inhibition assay: CYP1A2: α-naphthoflavone; CYP2C9: sulfaphenazole; CYP2C19: tranylcypromine; CYP2D6: quinidine; CYP3A4: ketoconazole.
(§4) Each compound was incubated for 10 minutes at 37° C. The reactions were stopped by the addition of methanol (final composition 1:1, aqueous: methanol). The incubation plates were shaken, chilled at […] for 2 hours, and centrifuged at 3500 rpm for 15 minutes at 4° C. to precipitate the protein.
(§5) IC50 values were determined by linear transformation within Microsoft Excel.

In a further data set the target is T2, CYP2C9 (Homo sapiens, UniProt P11712).
T2 construct: purchased Cypex Ltd, Dundee, Scotland UK
The experiment in a line: Human Cytochrome P450 Inhibition Assay (Bactosomes), CYP2C9. The conditions noted are these: recombinant Bactosomes, probe substrate, 10 minutes at 37° C. Type of data set: in vitro ADME. How it is done:
as §1, §2, §3, §4, §5

The next data set addresses T3, hERG ion channel (Homo sapiens, UniProt Q12809).
T3 construct: expressed in transfected cells; host or cells: Chinese Hamster Ovary cells (hERG-CHO)
The experiment in a line: hERG Ion Channel Assay (Q-patch, hERG-CHO cells). The note with it: CHO cells stably transfected with hERG (hERG-CHO), pH 7.4, hERG tail current. Type of data set: cell-based. Here is the method: The activity of the compounds against the hERG ion channel was tested. The assay was conducted using the automated path-clamp, Q-patch method using stably transfected Chinese Hamster Ovary cells (hERG-CHO). hERG-CHO cells were cultured in F-12 Kaighn's Nutrient Mixture medium (Invitrogen)+10% FBS at 37° C. for 1-3 days. Cells were kept at 30° C. for 24 to 48 hours prior to patch clamping in order to increase the hERG current amplitude. Subsequently, the cells were harvested by trypsinisation, and kept in Serum Free Medium (SFM) in the Q-patch cell preparation state for up to 6 hours at room temperature before being washed and re-suspended in extracellular solution and applied to the patch clamp sites for data recording.
Patch-clamp voltage protocol: After whole cell configuration was achieved, the cell was held at −80 mV. A 50 millisecond pulse to −40 mV was delivered to measure the leaking current, which was subtracted from the tail current on-line. Then the cell was depolarized to +20 mV for 2 seconds, followed by a one second pulse to −40 mV to reveal hERG tail current. This paradigm was delivered once every 5 seconds to monitor the current amplitude.
Extracellular solution: 137 mM NaCl, 4 mM KCl, 1.8 mM CaCl2, 1 mM MgCl2, 10 mM D(+)-glucose, 10 mM HePES buffer (pH adjusted to 7.4 with NaOH).
After the whole cell configuration was achieved, the extracellular solution (control) was applied first and the cell was stabilized for 2 minutes in extracellular solution. The test compound was then applied from low concentrations to high concentrations cumulatively. The cell was incubated with each test concentration for 5 minutes. During each incubation, the cell was repetitively stimulated using the voltage protocol described above, and the tail current amplitude was continuously monitored.
The degree of inhibition (%) was obtained by measuring the tail current amplitude, induced by a one second test pulse to −40 mV after a two second pulse to +20 mV, before and after incubation with the test compound. The difference in current was normalized to control and multiplied by 100 in order to obtain the percent inhibition.
Concentration (log) response curves were fitted to a logistic equation (three parameters assuming complete block of the current at very high test compound concentrations) to generate estimates of the 50% inhibitory concentration (IC50). The concentration-response relationship of each compound was constructed from the percentage reductions of current amplitude by sequential concentrations.

Setting [2] is: footnote (1): Thp1 cells plated at 3 × 10^5 cells/well, Grafit.
The mark [3] stands for this setting: footnote (2): Thp1 cells plated at 1.7 × 10^5 cells/well, GraphPad Prism.

The values that follow come from patent US10005733B2, “N-(4-hydroxy-4-methyl-cyclohexyl)-4-phenyl-benzenesulfonamide and N-(4-hydroxy-4-methyl-cyclohexyl)-4-(2-pyridyl)-benzenesulfonamide compounds and their therapeutic use” (PIMCO 2664 LIMITED, priority 2014, dated 2018).

Each structure is given as a SMILES string.

What is called IC50 is the concentration that gives 50% inhibition. For orientation: inhibition means the share of the control response that was lost under treatment. A lower inhibition goes with little suppression.

T3 sequence (Q12809 whole entry): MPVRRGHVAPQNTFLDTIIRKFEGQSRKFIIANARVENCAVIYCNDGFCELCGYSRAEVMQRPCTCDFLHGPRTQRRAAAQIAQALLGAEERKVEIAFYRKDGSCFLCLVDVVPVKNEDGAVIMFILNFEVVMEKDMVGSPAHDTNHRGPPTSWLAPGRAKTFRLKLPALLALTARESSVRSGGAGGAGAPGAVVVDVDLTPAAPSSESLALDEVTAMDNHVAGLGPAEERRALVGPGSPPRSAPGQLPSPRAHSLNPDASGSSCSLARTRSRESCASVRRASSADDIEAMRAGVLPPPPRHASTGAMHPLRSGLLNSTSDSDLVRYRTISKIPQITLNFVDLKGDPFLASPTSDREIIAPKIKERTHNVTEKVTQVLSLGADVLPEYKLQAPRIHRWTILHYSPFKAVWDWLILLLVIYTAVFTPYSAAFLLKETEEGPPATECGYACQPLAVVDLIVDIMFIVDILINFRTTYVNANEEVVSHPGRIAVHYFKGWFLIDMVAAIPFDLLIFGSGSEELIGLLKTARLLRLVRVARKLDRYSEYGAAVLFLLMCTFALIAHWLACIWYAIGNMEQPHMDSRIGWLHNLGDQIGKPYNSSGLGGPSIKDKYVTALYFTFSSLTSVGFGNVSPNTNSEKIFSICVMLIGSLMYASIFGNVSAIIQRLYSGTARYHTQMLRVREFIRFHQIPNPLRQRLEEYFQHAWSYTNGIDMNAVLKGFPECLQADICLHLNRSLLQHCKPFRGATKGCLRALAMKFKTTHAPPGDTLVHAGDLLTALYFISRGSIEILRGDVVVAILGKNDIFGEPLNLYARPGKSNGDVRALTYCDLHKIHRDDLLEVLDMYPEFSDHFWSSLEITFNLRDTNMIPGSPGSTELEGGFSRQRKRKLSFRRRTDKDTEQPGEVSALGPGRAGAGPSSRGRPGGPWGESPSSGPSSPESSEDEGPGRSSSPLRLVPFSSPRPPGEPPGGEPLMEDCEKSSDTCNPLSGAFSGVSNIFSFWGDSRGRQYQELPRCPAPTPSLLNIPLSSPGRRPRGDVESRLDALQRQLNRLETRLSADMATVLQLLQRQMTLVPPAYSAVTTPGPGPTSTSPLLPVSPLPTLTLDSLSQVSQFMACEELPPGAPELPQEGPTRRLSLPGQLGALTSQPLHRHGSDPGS
T2 sequence (P11712 whole entry): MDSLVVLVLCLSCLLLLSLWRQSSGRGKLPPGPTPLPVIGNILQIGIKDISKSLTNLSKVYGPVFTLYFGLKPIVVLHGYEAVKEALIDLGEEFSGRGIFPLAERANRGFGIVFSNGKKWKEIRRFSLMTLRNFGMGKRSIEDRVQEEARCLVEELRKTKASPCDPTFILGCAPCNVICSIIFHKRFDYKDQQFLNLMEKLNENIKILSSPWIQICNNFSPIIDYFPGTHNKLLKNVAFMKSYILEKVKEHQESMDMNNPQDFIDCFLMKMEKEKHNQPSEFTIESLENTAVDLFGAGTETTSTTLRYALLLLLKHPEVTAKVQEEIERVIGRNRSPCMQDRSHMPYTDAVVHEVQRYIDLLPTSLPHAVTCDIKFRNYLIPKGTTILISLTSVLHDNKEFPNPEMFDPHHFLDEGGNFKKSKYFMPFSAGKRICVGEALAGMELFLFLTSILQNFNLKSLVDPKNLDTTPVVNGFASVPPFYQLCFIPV
T1 sequence (P10635 whole entry): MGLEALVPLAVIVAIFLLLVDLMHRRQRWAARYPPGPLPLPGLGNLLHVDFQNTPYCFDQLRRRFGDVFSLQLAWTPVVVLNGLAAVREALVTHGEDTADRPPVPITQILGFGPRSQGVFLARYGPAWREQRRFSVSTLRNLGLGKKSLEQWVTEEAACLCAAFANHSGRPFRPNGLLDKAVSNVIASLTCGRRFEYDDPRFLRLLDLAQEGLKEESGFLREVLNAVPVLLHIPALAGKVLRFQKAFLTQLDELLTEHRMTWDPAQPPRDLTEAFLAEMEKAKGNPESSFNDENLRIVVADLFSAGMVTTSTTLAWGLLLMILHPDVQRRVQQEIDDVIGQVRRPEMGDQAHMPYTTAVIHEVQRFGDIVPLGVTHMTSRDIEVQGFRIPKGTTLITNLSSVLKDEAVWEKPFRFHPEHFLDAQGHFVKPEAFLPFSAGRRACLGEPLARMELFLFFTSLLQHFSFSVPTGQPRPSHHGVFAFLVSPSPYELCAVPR

Consider `O=S(=O)(N[C@H]1CC[C@H](O)CC1)c1ccc(-c2ccc(F)cc2F)cc1` [ABD599, reference compound], for which the half-maximal inhibitory concentration (IC50) stood at 0.07 µM in data set [1] (setting [2]), 0.19 µM in data set [1] (setting [3]), 20.7 µM at CYP2D6 and 9.5 µM on CYP2C9. The inhibition at 5 min, 10 µM on hERG ion channel turned out to be 74.9%.
`Cc1cc(S(=O)(=O)N[C@H]2CC[C@H](O)CC2)ccc1-c1ccc(F)cc1F` [ABD735, reference compound]: the figures for the half-maximal inhibitory concentration (IC50) at CYP2D6 and at CYP2C9 were above 25 µM and 25 µM, respectively.
With `C[C@]1(O)CC[C@@H](NS(=O)(=O)c2ccc(-c3ccc(F)cc3F)cc2)CC1` [ABD899, reference compound], the concentration for half-maximal inhibition (IC50) in data set [1] (setting [2]) was 0.03 µM; in data set [1] (setting [3]), 0.04 µM; on CYP2D6, 45.3 µM; at CYP2C9 it was 3.9 µM. The compound also had an inhibition at 5 min, 10 µM at hERG ion channel of 85.2%.
Regarding `C[C@]1(O)CC[C@H](NS(=O)(=O)c2ccc(-c3ccc(F)cc3F)cc2)CC1` [ABD900], the values for the half-inhibitory concentration (IC50) in data set [1] (setting [2]) and in data set [1] (setting [3]) were 0.09 µM and 0.11 µM, respectively. Besides, at hERG ion channel, the inhibition at 5 min, 10 µM was found to be 15.1%.
As to `C[C@]1(O)CC[C@H](NS(=O)(=O)c2ccc(-c3ccc(C#N)cc3)c(F)c2)CC1` [HMC-C-07-A, 4′-Cyano-2-fluoro-N-((1r,4r)-4-hydroxy-4-methylcyclohexyl)-[1,1′-biphenyl]-4-sulfonamide], the IC50 at CYP2D6 and on CYP2C9 was above 50 µM in each case. This compound also came in with an inhibition at 5 min, 10 µM at hERG ion channel of 47%.
As to `C[C@]1(O)CC[C@@H](NS(=O)(=O)c2ccc(-c3ccc(C#N)cc3)c(F)c2)CC1` [HMC-C-07-B, 4′-Cyano-2-fluoro-N-((1s,4s)-4-hydroxy-4-methylcyclohexyl)-[1,1′-biphenyl]-4-sulfonamide], the IC50 in data set [1] (setting [3]) is 0.018 µM; at CYP2D6 it was above 50 µM; at CYP2C9, above 50 µM. The same compound showed an inhibition at 5 min, 10 µM on hERG ion channel of 40%.
As to `C[C@]1(O)CC[C@H](NS(=O)(=O)c2ccc(-c3ccc(Cl)cc3C#N)c(F)c2)CC1` [HMC-C-08-A, 4′-Chloro-2′-cyano-2-fluoro-N-((1r,4r)-4-hydroxy-4-methylcyclohexyl)-[1,1′-biphenyl]-4-sulfonamide], the concentration for half-maximal inhibition (IC50) in data set [1] (setting [3]) turned out to be 0.16 µM; at CYP2D6, 19 µM; at CYP2C9 it was 6.7 µM. Further, on hERG ion channel, the inhibition at 5 min, 10 µM was determined as 29%.
The like results for `C[C@]1(O)CC[C@H](NS(=O)(=O)c2ccc(-c3ccc(C#N)cc3Cl)cc2)CC1` [HMC-C-09-A, 2′-Chloro-4′-cyano-N-((1r,4r)-4-hydroxy-4-methylcyclohexyl)-[1,1′-biphenyl]-4-sulfonamide] were, in that order, 0.17 µM, above 50 µM, 34 µM and 57%.
Turning to `C[C@]1(O)CC[C@@H](NS(=O)(=O)c2ccc(-c3cc(F)c(F)cc3F)cc2)CC1` [HMC-C-10-B, 2′,4′,5′-Trifluoro-N-((1s,4s)-4-hydroxy-4-methylcyclohexyl)-[1,1′-biphenyl]-4-sulfonamide], the values for the half-inhibitory concentration (IC50) (in data set [1] (setting [3]); at CYP2D6; on CYP2C9) were 0.55 µM, above 16 µM and 2.4 µM, respectively.
The like results for `C[C@]1(O)CC[C@H](NS(=O)(=O)c2ccc(-c3ccc(Cl)cc3C#N)c(Cl)c2)CC1` [HMC-C-11-A, 2,4′-Dichloro-2′-cyano-N-((1r,4r)-4-hydroxy-4-methylcyclohexyl)-[1,1′-biphenyl]-4-sulfonamide] were, in that order, 0.26 µM, 9.3 µM and 2.7 µM.
Consider `C[C@]1(O)CC[C@H](NS(=O)(=O)c2ccc(-c3ncc(Cl)cc3C#N)cc2)CC1` [HMC-N-05-A, 4-(5-Chloro-3-cyanopyridin-2-yl)-N-((1r,4r)-4-hydroxy-4-methylcyclohexyl)benzenesulfonamide], for which the IC50 in data set [1] (setting [3]) is 0.3 µM; on CYP2D6, above 50 µM; at CYP2C9, 27 µM. On hERG ion channel, this compound displayed an inhibition at 5 min, 10 µM of 35%.
